ChEMBL document CHEMBL5725610, “Phosphonate compounds” (2018)

Biological target: Protease (Human immunodeficiency virus 1, UniProt Q9YQ12)
Sequence (Q9YQ12 whole entry): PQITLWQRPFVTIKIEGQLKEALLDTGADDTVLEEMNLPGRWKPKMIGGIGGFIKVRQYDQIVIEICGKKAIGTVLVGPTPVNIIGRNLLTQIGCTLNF

Nc1ncnc2c1ncn2CCOCP(=O)(O)O [ADEFOVIR]
EC50: 16 µM
